The values below come from US4695581A, “2-(3,5-dialkyl-4-hydroxyphenyl)indole derivatives” (Teikoku Hormone Mfg. Co., Ltd., priority 1984, dated 1987).

Each structure is given as a SMILES string. Counter-ions that a name gives are not always drawn.

In data set [1] the test system is SRS-A-like active substance. Put plainly: A23187-induced pleurisy; inhibition of formation of SRS-A-like active substance in pleural exudate. As to conditions: Rattus norvegicus, po, p.o., 60 minutes before intrapleural A23187, rats, vs solvent control, read-out: Inhibitory activity on the formation of SRS-A-like active substance. The data set is classed as in vivo, rat (Wistar-strain, male, 11 weeks old). As for the experimental part: (1) Preparation of A23187 -induced pleurisy Under ether anaesthesia, 0.2 ml of 100 μM A23187 (prepared by adding injectable distilled water in a 2 mM A23187 ethanol solution) was administered intrapleurally to rats (Wistar-strain, male, 11 weeks old). Twenty minutes after the administration, the rats were exsanguinated and the pleural exudate was harvested. […] (2) Measurement of SRS-A-like active substance To the exudate obtained in (1) was added 4 times its volume of ice-cooled ethanol. They were well mixed, and then centrifuged. […] The solution was added to SEP-PAK® (C18) and SRS-A-like active substance was partially purified. […] The residue was dissolved in purified water in an amount corresponding to the amount of the exudate. The SRS-A-like active substance was assayed on the basis of contraction of the ileum of guinea pig (Hartley-strain, male, body weight 400-500 g) in the presence of atropine and Pyrilamine. The presence of SRS-A was confirmed by the fact that the contraction of the isolated ileum by the test solution was antagonized by FPL-55712 which is a specific antagonist for SRS-A. The results are shown in the following table. The activity of inhibiting the formation of an SRS-A-like active substance is indicated as the percent inhibition based on a control group to which only the solvent was administered.

The next data set concerns SD-strain male rats. Kind of data set: Toxicity, oral administration, observation for 2 weeks. The data set is classed as in vivo, rat (SD-strain. As to conditions: 5 g/kg, 10% gum arabic suspension, 5-membered groups. From the text: The test compound was suspended in a 10% gum arabic solution, and orally administered to SD-strain male rats (body weight 100-115 g) in 5-membered groups.

For the next data set, the system named is SRS-A. Put plainly: Contraction of isolated guinea pig ileum by the test solution (confirmation of SRS-A). As to conditions: in the presence of atropine and Pyrilamine. Also noted: species or system guinea pig (Hartley-strain, male). As for the experimental part: The SRS-A-like active substance was assayed on the basis of contraction of the ileum of guinea pig (Hartley-strain, male, body weight 400-500 g) in the presence of atropine and Pyrilamine. The presence of SRS-A was confirmed by the fact that the contraction of the isolated ileum by the test solution was antagonized by FPL-55712 which is a specific antagonist for SRS-A.

Another data set deals with lipoxygenase. As to conditions: known from the prior art; cited from earlier work.
The next data set deals with cyclooxygenase. To be noted: known from the prior art; cited from earlier work.

On to `Cc1cc(-c2[nH]c3ccc(N)cc3c2C)cc(C)c1O` [Example 33, 5-amino-2-(4-hydroxy-3,5-dimethylphenyl)-3-methylindole], for which the inhibition at 10 mg/kg in data set [1] was 68.1%. On the same count and under the same terms, for `Cc1cc(-c2[nH]c3ccc(OCc4ccccc4)cc3c2C)cc(C)c1O` [Example 36, 5-benzyloxy-2-(4-hydroxy-3,5-dimethylphenyl)-3-methylindole] the value was 35.4%.

For `CCN(CC)CCNc1ccc2[nH]c(-c3cc(C)c(O)c(C)c3)c(C)c2c1` [Example 38, 5-(2-diethylaminoethylamino)-2-(4-hydroxy-3,5-dimethylphenyl)-3-methylindole dihydrochloride], in data set [1], the inhibition at 10 mg/kg was determined as 38.3%. Turning to `Cc1ccc2[nH]c(-c3cc(C)c(O)c(C)c3)c(C)c2c1` [Example 5, 2-(4-Hydroxy-3,5-dimethylphenyl)-3,5-dimethylindole], the inhibition at 10 mg/kg in data set [1] was determined as 54.7%. Take `Cc1cc(-c2[nH]c3ccccc3c2C)cc(C)c1O` [Example 30, 2-(4-hydroxy-3,5-dimethylphenyl)-3-methylindole]: in data set [1], the inhibition at 10 mg/kg was determined as 58% and the inhibition at 30 mg/kg was determined as 90.2%. For `COc1cc2[nH]c(-c3cc(C)c(O)c(C)c3)c(C)c2cc1OC` [Example 24, 2-(4-Hydroxy-3,5-dimethylphenyl)-5,6-dimethoxy-3-methylindole], the inhibition at 10 mg/kg in data set [1] amounted to 70.4%. For `CCc1cc(-c2[nH]c3ccccc3c2C)cc(CC)c1O` [Example 46, 2-(3,5-diethyl-4-hydroxyphenyl)-3-methylindole], in data set [1], the inhibition at 10 mg/kg amounted to 22.9% and the inhibition at 30 mg/kg turned out to be 74.2%. Consider `CCc1cc(-c2[nH]c3ccccc3c2CC)cc(CC)c1O` [Example 50, 3-ethyl-2-(3,5-diethyl-4-hydroxyphenyl)indole], for which the inhibition at 10 mg/kg in data set [1] was 21.5%.

Consider `COc1ccc2[nH]c(-c3cc(C)c(O)c(C)c3)c(C)c2c1` [Example 1, 2-(4-hydroxy-3,5-dimethylphenyl)-5-methoxy-3-methylindole], for which the death entry with SD-strain male rats is given as “No case of death was observed”. In data set [1], the inhibition at 10 mg/kg was 66.2%. For the compound `CC(=O)Oc1ccc2[nH]c(-c3cc(C)c(O)c(C)c3)c(C)c2c1` [Example 37], in data set [1], the inhibition at 10 mg/kg came to 43.7%. `CSc1ccc2[nH]c(-c3cc(C)c(O)c(C)c3)c(C)c2c1` [Example 10, 2-(4-hydroxy-3,5-dimethylphenyl)-3-methyl-5-methylthioindole]: in data set [1], the inhibition at 10 mg/kg was found to be 41%.

Turning to `CCOc1ccc2[nH]c(-c3cc(C)c(O)c(C)c3)c(C)c2c1` [Example 8, 5-Ethoxy-2-(4-hydroxy-3,5-dimethylphenyl)-3-methylindole], the inhibition at 10 mg/kg in data set [1] was 28.7%. Still for that read-out and setting: for `CCc1c(-c2cc(C)c(O)c(C)c2)[nH]c2ccc(OC)cc12` [Example 45, 3-ethyl-2-(4-hydroxy-3,5-dimethylphenyl)-5-methoxyindole] the value was 52.7%. In the case of `CCCc1c(OCC(O)COc2ccc3c(=O)cc(C(=O)O)oc3c2CCC)ccc(C(C)=O)c1O` (centres unmarked) [FPL-55712], the “antagonism of contraction of the isolated ileum” value in the data set with SRS-A is reported as “antagonized”. For the compound `CCc1c(-c2cc(C)c(O)c(C)c2)[nH]c2ccccc12` [Example 44, 3-ethyl-2-(4-hydroxy-3,5-dimethylphenyl)indole], in data set [1], the inhibition at 10 mg/kg was determined as 46.9% and the inhibition at 30 mg/kg came out at 87.2%. In the case of `Cc1cc(-c2[nH]c3c(C)cccc3c2C)cc(C)c1O` [Example 16, 2-(4-Hydroxy-3,5-dimethylphenyl)-3,7-dimethylindole], the inhibition at 10 mg/kg in data set [1] is 37.5%. The same measure, in the same setting: the value for `CCc1cc(-c2[nH]c3ccc(OC)cc3c2C)cc(CC)c1O` [Example 48, 2-(3,5-diethyl-4-hydroxyphenyl)-5-methoxy-3-methylindole] was 28.3%; that for `CCN(CC)CCOc1ccc2[nH]c(-c3cc(C)c(O)c(C)c3)c(C)c2c1` [Example 35, 5-(2-diethylaminoethoxy)-2-(4-hydroxy-3,5-dimethylphenyl)-3-methylindole] was 39.1%. With `CCCCCC#CCC#CCC#CCC#CCCCC(=O)O` [5,8,11,14-eicosatetraynoic acid], the lipoxygenase inhibition result with lipoxygenase is given as “lipoxygenase inhibitors”. Besides, in the data set on cyclooxygenase, the “cyclooxygenase inhibition (lack of specificity)” value was “lack specificity and inhibit not only lipoxygenase but also cyclooxygenase”. As to `Cc1ccc2c(C)c(-c3cc(C)c(O)c(C)c3)[nH]c2c1` [Example 14, 2-(4-Hydroxy-3,5-dimethylphenyl)-3,6-dimethylindole], the inhibition at 10 mg/kg in data set [1] is 30.7%.

For the compound `Cc1cc(-c2[nH]c3ccc(OC(C)C)cc3c2C)cc(C)c1O` [Example 9, 2-(4-Hydroxy-3,5-dimethylphenyl)-3-methyl-5-isopropoxyindole], the inhibition at 10 mg/kg in data set [1] was 58.4%. In the case of `NC1=NN(c2cccc(C(F)(F)F)c2)CC1` [BW755C, 3-amino-1-(3-trifluoromethylphenyl)-2-pyrazoline], the lipoxygenase inhibition entry with lipoxygenase is reported as “lipoxygenase inhibitors”. In the data set on cyclooxygenase, the “cyclooxygenase inhibition (lack of specificity)” value was “lack specificity and inhibit not only lipoxygenase but also cyclooxygenase”. On to `CCCOc1ccc2[nH]c(-c3cc(C)c(O)c(C)c3)c(C)c2c1` [Example 43, 2-(4-hydroxy-3,5-dimethylphenyl)-3-methyl-5-n-propoxyindole], for which, in data set [1], the inhibition at 10 mg/kg was determined as 46.2%.
